Measurements as given in ChEMBL document CHEMBL1201862, “PubChem BioAssay data set” (2004).
Active and inactive are the calls of the source.

How the values were obtained:
[1] = target: T1, Apoptotic protease-activating factor 1 (Homo sapiens, UniProt O14727); experiment: activation of Apaf-1 mediated apoptosis – fluorescent, uHTS hits, dose response (AID 588554); assay type: functional
T1 sequence (O14727 whole entry): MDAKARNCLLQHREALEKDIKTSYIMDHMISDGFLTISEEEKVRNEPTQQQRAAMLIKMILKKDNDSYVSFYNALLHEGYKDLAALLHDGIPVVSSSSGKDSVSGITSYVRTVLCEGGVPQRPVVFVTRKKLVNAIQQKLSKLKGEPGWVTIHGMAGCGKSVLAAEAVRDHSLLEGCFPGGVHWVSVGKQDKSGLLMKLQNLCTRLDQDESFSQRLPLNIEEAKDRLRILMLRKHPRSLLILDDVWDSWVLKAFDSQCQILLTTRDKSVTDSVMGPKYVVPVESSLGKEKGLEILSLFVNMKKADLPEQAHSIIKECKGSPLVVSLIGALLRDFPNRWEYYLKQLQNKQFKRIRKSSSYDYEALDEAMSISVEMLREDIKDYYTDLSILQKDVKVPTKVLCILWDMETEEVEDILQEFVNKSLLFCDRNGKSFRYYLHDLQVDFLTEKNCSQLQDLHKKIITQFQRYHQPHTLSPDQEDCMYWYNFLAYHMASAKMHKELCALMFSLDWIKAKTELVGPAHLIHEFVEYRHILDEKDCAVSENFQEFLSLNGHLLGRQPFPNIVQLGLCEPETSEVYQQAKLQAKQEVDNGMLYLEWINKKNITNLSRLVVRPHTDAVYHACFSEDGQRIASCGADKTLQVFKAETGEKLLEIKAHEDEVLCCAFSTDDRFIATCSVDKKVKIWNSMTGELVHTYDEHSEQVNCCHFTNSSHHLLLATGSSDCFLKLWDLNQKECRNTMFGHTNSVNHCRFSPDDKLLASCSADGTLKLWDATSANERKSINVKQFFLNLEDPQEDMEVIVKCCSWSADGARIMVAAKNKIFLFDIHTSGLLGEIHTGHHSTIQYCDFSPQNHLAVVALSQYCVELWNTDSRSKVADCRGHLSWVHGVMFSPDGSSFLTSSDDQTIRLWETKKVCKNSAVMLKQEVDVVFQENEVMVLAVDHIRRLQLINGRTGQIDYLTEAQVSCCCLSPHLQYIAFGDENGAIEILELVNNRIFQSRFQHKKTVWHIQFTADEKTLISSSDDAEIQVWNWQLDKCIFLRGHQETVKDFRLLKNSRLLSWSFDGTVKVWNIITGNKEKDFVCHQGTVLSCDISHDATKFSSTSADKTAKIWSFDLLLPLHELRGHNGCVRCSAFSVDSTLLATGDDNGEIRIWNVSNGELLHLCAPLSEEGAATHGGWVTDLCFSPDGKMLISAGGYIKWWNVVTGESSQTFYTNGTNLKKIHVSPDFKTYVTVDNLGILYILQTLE

Keap1/Nrf2 = Keap1/Nrf2 (Homo sapiens, UniProt Q14145); experiment: Keap1-Nrf2 protein-protein interaction inhibitors, dose response, biochemical, fluorescence polarization, cherry-picked samples (AID 588683)
Keap1/Nrf2, sequence (Q16236 whole entry): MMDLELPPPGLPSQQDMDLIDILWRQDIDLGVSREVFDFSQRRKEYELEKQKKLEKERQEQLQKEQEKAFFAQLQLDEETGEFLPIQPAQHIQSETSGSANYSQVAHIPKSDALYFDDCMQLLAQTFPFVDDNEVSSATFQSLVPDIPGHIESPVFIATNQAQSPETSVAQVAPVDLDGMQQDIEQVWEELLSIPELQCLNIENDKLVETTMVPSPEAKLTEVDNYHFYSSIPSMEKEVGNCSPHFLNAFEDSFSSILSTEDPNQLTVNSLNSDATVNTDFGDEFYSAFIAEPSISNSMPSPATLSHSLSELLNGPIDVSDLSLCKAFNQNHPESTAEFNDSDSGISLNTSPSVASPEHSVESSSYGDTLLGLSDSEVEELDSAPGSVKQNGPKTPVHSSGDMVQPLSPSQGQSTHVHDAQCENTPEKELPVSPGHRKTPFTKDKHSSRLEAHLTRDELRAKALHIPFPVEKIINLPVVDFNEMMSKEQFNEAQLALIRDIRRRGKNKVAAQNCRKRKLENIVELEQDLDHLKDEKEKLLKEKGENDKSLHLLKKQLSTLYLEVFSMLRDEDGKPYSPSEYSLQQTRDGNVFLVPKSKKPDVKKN
Keap1/Nrf2, sequence (Q14145 whole entry): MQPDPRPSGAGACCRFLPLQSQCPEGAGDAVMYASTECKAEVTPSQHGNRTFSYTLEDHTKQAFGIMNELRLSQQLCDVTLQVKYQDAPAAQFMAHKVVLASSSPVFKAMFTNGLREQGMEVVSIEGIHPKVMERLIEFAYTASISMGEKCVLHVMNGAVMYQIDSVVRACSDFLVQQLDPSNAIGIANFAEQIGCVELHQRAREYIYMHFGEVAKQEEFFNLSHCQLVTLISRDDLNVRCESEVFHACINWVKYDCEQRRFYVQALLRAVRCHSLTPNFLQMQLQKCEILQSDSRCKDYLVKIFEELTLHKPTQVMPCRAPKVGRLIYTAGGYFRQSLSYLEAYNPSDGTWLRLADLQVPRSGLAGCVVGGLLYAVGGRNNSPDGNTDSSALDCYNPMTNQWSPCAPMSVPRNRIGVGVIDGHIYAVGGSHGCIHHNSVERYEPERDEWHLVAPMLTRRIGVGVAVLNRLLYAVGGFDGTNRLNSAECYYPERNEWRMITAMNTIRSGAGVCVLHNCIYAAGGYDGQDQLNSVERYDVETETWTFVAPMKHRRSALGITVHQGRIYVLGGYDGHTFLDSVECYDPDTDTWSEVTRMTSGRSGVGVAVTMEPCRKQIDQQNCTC

H4 = experiment: Luminescence Cell-Based Dose Response HTS to Identify Activators of 5'UTR Stem-Loop Driven Prion Protein mRNA Translation in H4 Neuroglioblastoma Cells. [Related pubchem assays: 1829 (Project Summary), 1814 (Primary HTS)]; assay type: functional; conditions: Homo sapiens
[2] = Luminescence Cell-Based Dose Response HTS to Identify Activators of Luciferase Translation or Activity in H4 […] Cells. [Related pubchem assays: 1829 (Project Summary), 1814 (Primary HTS)]; assay type: functional
[3] = Shn3 3'UTR reporter inhibitors, dose response, cell-based, Clone20 osteoblasts, firefly luciferase, cherry-picked (AID 624132); assay type: functional;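 note: firefly luciferase luminescence from reporter carrying the Shn3 3'UTR in osteoblasts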
Phospholipase A2 = Phospholipase A2 (Homo sapiens, UniProt P04054); experiment: PLA2 enzyme inhibitors, dose response, counter-screen for ATG4B inhibitor project, biochemical, set 2 (AID 588586); assay type: functional
Phospholipase A2, sequence (P04054 whole entry): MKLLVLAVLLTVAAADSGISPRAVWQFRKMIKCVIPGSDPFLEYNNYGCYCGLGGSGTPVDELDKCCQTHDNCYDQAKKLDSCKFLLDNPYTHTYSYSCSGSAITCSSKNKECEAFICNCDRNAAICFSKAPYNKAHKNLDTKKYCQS

[4] = cytotoxicity toward DRD oncogenic fibroblasts, dose response, cell-based, non-viral oncogenic, luminescence (AID 1934); assay type: functional; conditions: Homo sapiens
BJ [5] = experiment: cytotoxicity toward BJ-TERT-LT-ST fibroblasts, dose response, cell-based, RAS-independent, luminescence (AID 1935); assay type: functional; conditions: Homo sapiens;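 note: BJ fibroblasts immortalized with TERT plus LT and ST oncogenes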
BJ [6] = experiment: cytotoxicity toward BJ-TERT fibroblasts, dose response, cell-based, RAS-independent, luminescence (AID 1933); assay type: functional; conditions: Homo sapiens
Cysteine protease ATG4B = Cysteine protease ATG4B (Homo sapiens, UniProt Q9Y4P1); experiment: ATG4B protease inhibitors, dose response, biochemical, fluorescence, set 2 (AID 588584); assay type: functional
Cysteine protease ATG4B, sequence (Q9Y4P1 whole entry): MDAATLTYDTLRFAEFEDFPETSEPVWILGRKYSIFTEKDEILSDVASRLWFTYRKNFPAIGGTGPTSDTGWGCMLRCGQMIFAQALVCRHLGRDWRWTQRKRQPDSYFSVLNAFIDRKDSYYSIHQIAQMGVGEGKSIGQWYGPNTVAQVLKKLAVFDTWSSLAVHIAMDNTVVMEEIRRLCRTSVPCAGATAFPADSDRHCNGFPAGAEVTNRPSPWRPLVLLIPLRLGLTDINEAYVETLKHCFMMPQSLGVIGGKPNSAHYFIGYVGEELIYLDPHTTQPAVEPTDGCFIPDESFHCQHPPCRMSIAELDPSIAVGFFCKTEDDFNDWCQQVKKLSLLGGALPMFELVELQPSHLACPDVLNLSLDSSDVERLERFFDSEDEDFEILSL

[7] = control 3'UTR Renilla luciferase suppression, dose response, counter-screen for Shn3 inhibitor project, cell-based, Clone20-Shn3RL, cherry-picked (AID 624133); assay type: functional
BJ [8] = experiment: cells; assay type: functional, cell-based; conditions: Homo sapiens

With `O=C1C2(CCCC13COC(c1ccc(O)cc1)OC3)COC(c1ccc(O)cc1)OC2` (configuration not stated) the EC50 [1] was 9.2 µM (active).
In the case of `O=c1c(-c2cc3ccccc3o2)[n+]([O-])c2ccccc2n1OCc1ccccn1`, the AC50 (Keap1/Nrf2) is reported as > 52 µM (inactive), the EC50 (H4) is reported as 65.5 µM (inconclusive) and the EC50 [2] is reported as 4.81 µM (active).
In the case of `O=C(OCCN1C(=O)c2cccc3c(N4CCOCC4)ccc(c23)C1=O)c1ccccc1Cl`, the AC50 [3] is reported as 3.06 µM (active), the IC50 (Phospholipase A2) is reported as > 80 µM (inactive) and the EC50 [4] is reported as 18.8 µM (active). For the same molecule, the EC50 (BJ [5]) was > 150 µM (inconclusive), the EC50 (BJ [6]) was 17.2 µM (active) and the IC50 (Cysteine protease ATG4B) was > 80 µM (inactive). The AC50 [7] was 6.25 µM (active) and the EC50 (BJ [8]) was 21.5 µM (active).
